Test system: rats with L5 spinal nerve ligation (SNL model)
Assay: Spinal nerve ligation (L5) neuropathic pain model, von Frey filaments, dose range (Example 5)
Assay type: in vivo, rat
Source text: The spinal nerve ligation (SNL) model of neuropathic pain was produced in all rats as described by Kim and Chung (Pain, 50, 355-363, 1992). Briefly, under gaseous anesthesia using halothane (3% for induction and 1.5% for maintenance) in oxygen, the left L5 spinal nerve was exposed by removing the paraspinal muscles and the transverse process of the L6 vertebra. The very proximal portion of the L5 spinal nerve was tightly ligated with 6-0 silk suture. The wounds were closed and anesthesia was discontinued. Rats were kept on a heated blanket until they had completely recovered from anesthesia.
Behavioral tests were conducted in a non-blind fashion. The foot withdrawal threshold to mechanical stimuli applied to the paw (mechanical threshold) was measured, as an indicator of mechanical sensitivity of the affected paw. The foot withdrawal threshold was measured using von Frey filaments. It is generally thought that von Frey filaments are more sensitive than electronic von Frey probes for measuring tactile stimulation. The mechanical thresholds were measured by using the “up-and-down” method (Chaplan et al., J. Neurosci. Methods 53(1):55-63, 1994), following the procedures described in previous studies (Park et al., Pain 87(2):171-179, 2000; Xie et al., J. Pain 2(5):270-278, 2001; Baik et al., J. Pain 4:212-221, 2003). In brief, rats were placed in a transparent plastic box on a metal wire mesh floor. To determine the threshold stiffness required for 50% paw withdrawal, a series of eight von Frey filaments with approximately equal logarithmic incremental (0.22) von Frey values (3.65, 3.87, 4.10, 4.31, 4.52, 4.74, 4.92, and 5.16) were used. Von Frey (VF) values are logarithmically related to gram (g) values (VF=log (10,000×g)). The chosen von Frey values are therefore equivalent to 0.45, 0.74, 1.26, 2.04, 3.31, 5.50, 8.32, and 14.45 in gram value, respectively. Starting with filament 4.31, von Frey filaments were applied perpendicularly to the ventral surface of the proximal part of the third or fourth toe for 2-3 seconds. Whenever a positive response to a stimulus occurred (paw withdrawal), the next smaller von Frey hair was applied. Whenever a negative response occurred, the next larger one was applied. The test was continued until the response of six stimuli after the first change in response had been obtained or the test had reached either end of the spectrum of the von Frey set.
The 50% threshold value was then calculated using Dixon's formula (Dixon, Ann. Rev. Phar. Tox. 20:441-462, 1980): 50% threshold=X+kd, where X is the value of the final von Frey hair used (in log units), k is the tabular value for the pattern of positive/negative responses, and d is the mean difference between stimuli in log units (0.22). In the cases where continuous positive or negative responses were observed all the way out to the end of the stimulus spectrum, values of 3.54 or 5.27 were assigned, respectively, by assuming a value of (−/+) 0.5 for k in these cases (Dixon, supra, 1980). Outcome of behavioral data were expressed as von Frey values (maximum range from 3.54 to 5.27) and plotted in a linear scale.
Data were expressed as the mean±standard errors of mean (SEM). Differences in mechanical thresholds at various times after injections were tested using two-way (time and group factors) analysis of variance (ANOVA), followed by the Duncan's post-hoc test for multiple comparisons. Statistical analyses were done using the SAS® software program (SAS Institute Inc, Cary, N.C.). Two-tailed p-values<0.05 were considered to be significant.
This experiment was conducted on 8 rats in a Latin-square design examining a dose response of OPC-14523. Gabapentin was prepared at 10 mg/ml in 0.5% tragacanth and administered at 100 mg/kg p.o. Behavioral tests were conducted in a blind fashion twice (1 day and 1 hour) before as well as 1 and 4 days after the neuropathic surgery. […] These 8 rats were randomly divided into 6 groups of 1-2 rats. […]

## COc1cccc2c1CCC(=O)N2CCCN1CCN(c2cccc(Cl)c2)CC1 [OPC-14523, 1-[3-[4-(3-chlorophenyl)-1-piperazinyl]propyl]-5-methoxy-3,4-dihydro-2(1H)-quinolone]
10 mg/kg oral
  effect on mechanical threshold: neither vehicle nor OPC-14523 at 10 mg/kg produced significant changes
30 mg/kg oral
  effect on mechanical threshold: statistically significant increase
  level of response compared with gabapentin 100 mg/kg p.o.: comparable to that of gabapentin
60 mg/kg oral
  effect on mechanical threshold: statistically significant increase
  level of response compared with gabapentin 100 mg/kg p.o.: comparable to that of gabapentin
100 mg/kg oral
  effect on mechanical threshold: statistically significant increase
100 mg/kg oral, exceeding the response induced by gabapentin
  level of mechanical threshold reached: about the level observed prior to the ligature surgery

Reference: patent publication US20070142396A1, “Treatment of pain with 1-[3-[4-(3-chlorophenyl)-1-piperazinyl]propyl]-5-methoxy-3,4-dihydro-2(1H)-quinolone or salt thereof” (Vela Pharmaceuticals, Inc., priority 2005, published 2007)
